Tests used:
Assay type in all cases: in vivo
[1] = system: pigweed (Amaranthus retroflexus); assay: Test A pre-/postemergence plant response
In short: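 Seeds were planted in blended loam soil and sand, then treated preemergence by directed soil spray. At that time, emerged plants (one- to two-leaf, 2–10 cm) received postemergence applications of the same surfactant-containing formulation. Injury was assessed visually on a 0–100 scale after approximately 10 days.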

[2] = system: Italian ryegrass (Lolium multiflorum); assay: Test C pre-/postemergence plant response; details: Preemergence
Source text: (§1) Seeds of plant species selected from annual bluegrass (Poa annua), blackgrass (Alopecurus myosuroides), canola (Brassica rapa), downy bromegrass (Bromus tectorum), green foxtail (Setaria viridis), Italian ryegrass (Lolium multiflorum), canarygrass (Phalaris minor), pigweed (Amaranthus retroflexus), spring barley (Hordeum vulgare), spring wheat (Triticum aestivum), wild mustard (Sinapis arvensis), wild oat (Avena fatua), windgrass (Apera spica-venti), winter barley (Hordeum vulgare), and winter wheat (Triticum aestivum) were planted and treated preemergence with test chemicals formulated in a non-phytotoxic solvent mixture which included a surfactant. At the same time, plants selected from these crop and weed species were treated with postemergence applications of some of the test chemicals formulated in the same manner. Plants ranged in height from 2 to 18 cm (1- to 4-leaf stage) for postemergence treatments.
(§2) Treated plants and controls were maintained in a controlled growth environment for 15 to 25 days after which time all species were compared to controls and visually evaluated. Plant response ratings, summarized in Table C, are based on a scale of 0 to 100 where 0 is no effect and 100 is complete control. A dash (-) response means no test result.

[3] = system: annual bluegrass (Poa annua); assay: Test C pre-/postemergence plant response; details: Preemergence
Source text: as §1, §2

[4] = system: blackgrass (Alopecurus myosuroides); assay: Test C pre-/postemergence plant response; details: Preemergence
Source text: as §1, §2

[5] = system: canarygrass (Phalaris minor); assay: Test C pre-/postemergence plant response; details: Preemergence
Source text: as §1, §2

[6] = system: downy bromegrass (Bromus tectorum); assay: Test C pre-/postemergence plant response; details: Preemergence
Source text: as §1, §2

[7] = system: green foxtail (Setaria viridis); assay: Test C pre-/postemergence plant response; details: Preemergence
Source text: as §1, §2

[8] = system: pigweed (Amaranthus retroflexus); assay: Test C pre-/postemergence plant response; details: Preemergence
Source text: as §1, §2

[9] = system: spring barley (Hordeum vulgare); assay: Test C pre-/postemergence plant response; details: Preemergence
Source text: as §1, §2

[10] = system: spring wheat (Triticum aestivum); assay: Test C pre-/postemergence plant response; details: Preemergence
Source text: as §1, §2

[11] = system: wild mustard (Sinapis arvensis); assay: Test C pre-/postemergence plant response; details: Preemergence
Source text: as §1, §2

wild oat (Avena fatua) = assay: Test C pre-/postemergence plant response; details: Preemergence
Source text: as §1, §2

[12] = system: windgrass (Apera spica-venti); assay: Test C pre-/postemergence plant response; details: Preemergence
Source text: as §1, §2

[13] = system: winter barley (Hordeum vulgare); assay: Test C pre-/postemergence plant response; details: Preemergence
Source text: as §1, §2

[14] = system: winter wheat (Triticum aestivum); assay: Test C pre-/postemergence plant response; details: Preemergence
Source text: as §1, §2

[15] = Postemergence, 31 g ai/ha, 0 to 100 scale, 0 no effect, 100 complete control
[16] = Postemergence, 125 g ai/ha, 0 to 100 scale, 0 no effect, 100 complete control
[17] = Preemergence, 125 g ai/ha, 0 to 100 scale (0 no effect, 100 complete control)
[18] = 8 g ai/ha, scale 0 to 100 (0 no effect, 100 complete control)
[19] = 16 g ai/ha, scale 0 to 100 (0 no effect, 100 complete control)
[20] = 62 g ai/ha, scale 0 to 100, 0 no effect, 100 complete control
[21] = 31 g ai/ha, scale 0 to 100 (0 no effect, 100 complete control)

SMILES: Cc1cc(-c2ccc(Cl)cc2)nn1-c1c(OS(=O)(=O)c2ccc(Cl)s2)cnn(C)c1=O [Compound 55]
- Plant response rating, Pigweed [1, 15]: 0
- Plant response rating, Pigweed [1, 16]: 0
- Plant response rating, Pigweed ([1]; Preemergence, 31 g ai/ha, 0 to 100 scale, 0 is no effect, 100 is complete control): 0
- Plant response rating, Pigweed [1, 17]: 0
- Plant response rating, Ryegrass, Italian [2, 18]: 0
- Plant response rating, Ryegrass, Italian [2, 19]: 0
- Plant response rating, Ryegrass, Italian [2, 20]: 90
- Plant response rating, Bluegrass [3, 18]: 0
- Plant response rating, Bluegrass [3, 19]: 0
- Plant response rating, Bluegrass [3, 21]: 0
- Plant response rating, Bluegrass [3, 20]: 15
- Plant response rating, Blackgrass [4, 19]: 40
- Plant response rating, Blackgrass [4, 21]: 80
- Plant response rating, Blackgrass [4, 20]: 95
- Plant response rating, Canarygrass [5, 18]: 0
- Plant response rating, Canarygrass [5, 19]: 0
- Plant response rating, Canarygrass [5, 21]: 20
- Plant response rating, Canarygrass [5, 20]: 90
- Plant response rating, Bromegrass, Downy [6, 18]: 0
- Plant response rating, Bromegrass, Downy [6, 19]: 0
- Plant response rating, Bromegrass, Downy [6, 21]: 0
- Plant response rating, Bromegrass, Downy [6, 20]: 40
- Plant response rating, Foxtail, Green [7, 18]: 20
- Plant response rating, Foxtail, Green [7, 19]: 40
- Plant response rating, Foxtail, Green [7, 21]: 100
- Plant response rating, Foxtail, Green [7, 20]: 100
- Plant response rating, Pigweed [8, 18]: 0
- Plant response rating, Pigweed [8, 19]: 0
- Plant response rating, Pigweed [8, 21]: 0
- Plant response rating, Barley, Spring [9, 18]: 0
- Plant response rating, Barley, Spring [9, 19]: 0
- Plant response rating, Barley, Spring [9, 21]: 0
- Plant response rating, Barley, Spring [9, 20]: 70
- Plant response rating, Wheat, Spring [10, 18]: 0
- Plant response rating, Wheat, Spring [10, 19]: 0
- Plant response rating, Wheat, Spring [10, 21]: 50
- Plant response rating, Wheat, Spring [10, 20]: 60
- Plant response rating, Mustard, Wild [11, 18]: 0
- Plant response rating, Mustard, Wild [11, 19]: 0
- Plant response rating, Mustard, Wild [11, 21]: 0
- Plant response rating, Mustard, Wild [11, 20]: 0
- Plant response rating, Oat, Wild (wild oat (Avena fatua); [18]): 0
- Plant response rating, Oat, Wild (wild oat (Avena fatua); [19]): 0
- Plant response rating, Oat, Wild (wild oat (Avena fatua); [21]): 0
- Plant response rating, Oat, Wild (wild oat (Avena fatua); [20]): 65
- Plant response rating, Windgrass [12, 18]: 0
- Plant response rating, Windgrass [12, 19]: 0
- Plant response rating, Windgrass [12, 21]: 0
- Plant response rating, Windgrass [12, 20]: 60
- Plant response rating, Barley, Winter [13, 18]: 0
- Plant response rating, Barley, Winter [13, 19]: 0
- Plant response rating, Barley, Winter [13, 21]: 0
- Plant response rating, Barley, Winter [13, 20]: 60
- Plant response rating, Wheat, Winter [14, 18]: 0
- Plant response rating, Wheat, Winter [14, 19]: 0
- Plant response rating, Wheat, Winter [14, 21]: 0
- Plant response rating, Wheat, Winter [14, 20]: 60

SMILES: Cc1cc(-c2ccc(Cl)cc2)nn1-c1c(OC(=O)c2cccc(Cl)c2)cnn(C)c1=O [Compound 32]
- Plant response rating, Pigweed [1, 15]: 0
- Plant response rating, Pigweed [1, 16]: 10
- Plant response rating, Pigweed [1, 17]: 0
- Plant response rating, Ryegrass, Italian [2, 18]: 0
- Plant response rating, Ryegrass, Italian [2, 19]: 20
- Plant response rating, Ryegrass, Italian [2, 20]: 75
- Plant response rating, Bluegrass [3, 18]: 0
- Plant response rating, Bluegrass [3, 19]: 0
- Plant response rating, Bluegrass [3, 21]: 0
- Plant response rating, Bluegrass [3, 20]: 20
- Plant response rating, Blackgrass [4, 21]: 75
- Plant response rating, Blackgrass [4, 20]: 98
- Plant response rating, Canarygrass [5, 18]: 0
- Plant response rating, Canarygrass [5, 19]: 0
- Plant response rating, Canarygrass [5, 21]: 75
- Plant response rating, Canarygrass [5, 20]: 90
- Plant response rating, Bromegrass, Downy [6, 18]: 0
- Plant response rating, Bromegrass, Downy [6, 19]: 20
- Plant response rating, Bromegrass, Downy [6, 21]: 20
- Plant response rating, Bromegrass, Downy [6, 20]: 60
- Plant response rating, Foxtail, Green [7, 18]: 40
- Plant response rating, Foxtail, Green [7, 19]: 75
- Plant response rating, Foxtail, Green [7, 21]: 100
- Plant response rating, Foxtail, Green [7, 20]: 100
- Plant response rating, Pigweed [8, 18]: 0
- Plant response rating, Pigweed [8, 19]: 0
- Plant response rating, Pigweed [8, 21]: 0
- Plant response rating, Pigweed [8, 20]: 0
- Plant response rating, Barley, Spring [9, 18]: 0
- Plant response rating, Barley, Spring [9, 19]: 0
- Plant response rating, Barley, Spring [9, 21]: 25
- Plant response rating, Barley, Spring [9, 20]: 75
- Plant response rating, Wheat, Spring [10, 18]: 0
- Plant response rating, Wheat, Spring [10, 19]: 25
- Plant response rating, Wheat, Spring [10, 21]: 60
- Plant response rating, Wheat, Spring [10, 20]: 98
- Plant response rating, Mustard, Wild [11, 18]: 0
- Plant response rating, Mustard, Wild [11, 19]: 0
- Plant response rating, Mustard, Wild [11, 21]: 0
- Plant response rating, Oat, Wild (wild oat (Avena fatua); [18]): 0
- Plant response rating, Oat, Wild (wild oat (Avena fatua); [19]): 10
- Plant response rating, Oat, Wild (wild oat (Avena fatua); [21]): 65
- Plant response rating, Oat, Wild (wild oat (Avena fatua); [20]): 70
- Plant response rating, Windgrass [12, 18]: 0
- Plant response rating, Windgrass [12, 19]: 0
- Plant response rating, Windgrass [12, 21]: 0
- Plant response rating, Windgrass [12, 20]: 75
- Plant response rating, Barley, Winter [13, 18]: 0
- Plant response rating, Barley, Winter [13, 19]: 0
- Plant response rating, Barley, Winter [13, 21]: 20
- Plant response rating, Barley, Winter [13, 20]: 65
- Plant response rating, Wheat, Winter [14, 18]: 0
- Plant response rating, Wheat, Winter [14, 19]: 20
- Plant response rating, Wheat, Winter [14, 21]: 35
- Plant response rating, Wheat, Winter [14, 20]: 65

From patent US20100267561A1, “HERBICIDAL PYRIDAZINONE DERIVATIVES” (priority 2007, published 2010)
